Assay results reported in patent publication US4719200A, “Amino acid derivatives and antihypertensive drugs containing the same” (Ajinomoto Co., Inc., priority 1984, dated 1988).
Square brackets hold non-standard residues; d marks the D form. Peptide text beside a SMILES is read from it. * marks the point of attachment. pGlu = O=C1CC[C@@H](C(=O)O)N1; Cbz = O=C(OCc1ccccc1)*

System: spontaneously hypertensive rates (SHR rats)
Experiment: Measurement of change in blood pressure (systolic, indirect, conscious rats) after one oral dose
Format: in vivo, rat
Conditions: for Systolic Blood Pressure, Lowest Value: after administration; for Δ Blood Pressure (systolic): lowest value minus value before administration
Description: The antihypertensive activities of the amino acid derivatives as prepared above were determined.
As subject animals, there were used 5 spontaneously hypertensive rates (SHR rats) which had been sufficiently trained and confirmed to be hypertensive (mode, the body weight of 400 g) per a sample.
As an instrument for measuring the blood pressure there was used Programmed Electro-Sphygmomanometer PE-300 (Narco Co., U.S.A.), and the blood pressure was indirectly measured on conscious rats.
An aqueous solution of a sample (0.05 m mole/kg) was once force-fed into the stomach by means of a […] probe. As a control, the water as deionized was fed to the same animals as above.

[1] = second table (Examples 25-43), before administration
[2] = SHR rats, 5 per sample, before single force-feeding into the stomach of 0.05 m mole/kg aqueous solution
[3] = SHR rats, single force-feeding into the stomach, 0.05 m mole/kg

Compound | Hrs. After Admin. (of lowest systolic blood pressure value) (second table (Examples 25-43)) [h] | Systolic Blood Pressure, Lowest Value (second table (Examples 25-43)) | Systolic Blood Pressure, Value Before Administration [1] | Δ Blood Pressure (systolic) (second table (Examples 25-43)) | Systolic Blood Pressure, Value Before Administration [2] [mm Hg] | Hours after administration (of lowest systolic blood pressure value) [3] [h] | Systolic Blood Pressure, Lowest value after administration [3] [mm Hg] | Δ Blood Pressure (systolic) [3] [mm Hg]
CCS(=O)(=O)N[C@@H](CCSC)C(=O)N1CCC[C@H]1C(=O)N1CCC[C@H]1C(=O)O [Example 43, N--ethane sulfonyl-L-methionyl-L-prolyl-L-proline] | 8 | 198 | 229 | -31 | – | – | – | –
CCOC(=O)N[C@@H](CCC(=O)O)C(=O)N1CCC[C@H]1C(=O)O [Example 33, N--ethoxycarbonyl-L-glutamyl-L-proline] | 8 | 202 | 220 | -18 | – | – | – | –
CCOC(=O)N[C@@H](Cc1ccccc1)C(=O)N1CCC[C@H]1C(=O)N1CCC[C@H]1C(=O)O.[Na] [Example 31, N--ethoxycarbonyl-L-phenylalanyl-L-prolyl-L-proline sodium salt] | 24 | 199 | 216 | -17 | – | – | – | –
N-(3-phenylpropionyl)-L-alanyl-L-prolyl-L-proline L-arginine salt [Example 2] | – | – | – | – | 190 | 24 | 154 | -36
CCOC(=O)N[C@H](C(=O)N1CCC[C@H]1C(=O)N1CCC[C@H]1C(=O)O)[C@@H](C)CC.[Na] [Example 30, N--ethoxycarbonyl-L-isoleucyl-L-prolyl-L-proline sodium salt] | 4 | 208 | 224 | -16 | – | – | – | –
C[C@H](NC(=O)c1ccccn1)C(=O)N1CCC[C@H]1C(=O)N1CCC[C@H]1C(=O)O [Example 5, N-picolinoyl-L-alanyl-L-prolyl-L-proline] | – | – | – | – | – | – | 175 | -22
CCOC(=O)N[C@@H](CCCNC(=N)N)C(=O)N1CCC[C@H]1C(=O)N1CCC[C@H]1C(=O)O [Example 34, N--ethoxycarbonyl-L-arginyl-L-prolyl-L-proline] | 4 | 192 | 203 | -11 | – | – | – | –
N-phenylcarbamoyl-L-alanyl-L-prolyl-L-proline L-arginine salt [Example 17] | – | – | – | – | 218 | 24 | 203 | -15
C[C@H](NC(=O)OCc1ccccc1)C(=O)N1CCC[C@H]1C(=O)N1CCC[C@H]1C(=O)O.NC(N)=NCCC[C@H](N)C(=O)O [Example 15, N-benzyloxycarbonyl-L-alanly-L-prolyl-L-proline L-arginine salt] (Cbz-Ala-Pro-Pro-OH) | – | – | – | – | 205 | 4 | 172 | -33
CCOC(=O)NCC(=O)N1CCC[C@H]1C(=O)N1CCC[C@H]1C(=O)O.[Na] [Example 32, N--ethoxycarbonyl-glycyl-L-prolyl-L-proline sodium salt] | 8 | 193 | 215 | -22 | – | – | – | –
C[C@H](NC(=O)[C@@H]1CCC(=O)N1)C(=O)N1CCC[C@H]1C(=O)N1CCC[C@H]1C(=O)O [Example 21, L-pyroglutamyl-L-alanyl-L-prolyl-L-proline] ([pGlu]APP-OH) | – | – | – | – | – | – | 190 | -29
